This is an account of results in US4062948A, “Dihydromocimycin antibiotics” (Gist-Brocades N.V., priority 1970, dated 1977).

Series [1] relates to Actinobacillus equuli. Briefly: activity against Actinobacillus equuli (in words). It is filed as cell-based.
The subject of series [2] is Treponema hyodysenteriae. Description: early experiments against Treponema dysentery. As to conditions: swine. It is filed as in vivo. The procedure:
In an early stage of investigation, it was presumed that mocimycin, having a similar anti-microbial spectrum to that of tylosin (Merck Index, 8th Ed. page 1089), might be effective against Treponema hyodysenteriae causing Treponema dysentery of Vibrio Doyle, one of the most common swine diseases. […] For that reason, no further investigations were carried out.

The subject of series [3] is mice. Description: Acute toxicity in mice. The class given is in vivo. The source says:
(§1) The toxicity of the antibiotic has been studied in various animals.

The subject of series [4] is chickens. Description: three-month oral toxicity in chickens. The class given is in vivo. The conditions noted are these: up to 0.1% in the diet, three months.
Source text: as §1

The test system of series [5] is Brucella melitensis A 488. Description: microbe, parasite or virus in culture. It is filed as cell-based. The conditions noted are these: A488, 18 h, read-out: Minimum inhibitory concentration.
In series [6] the test system is Mycoplasma gallisepticum. Briefly: in vivo activity against Mycoplasma gallisepticum.

Each structure is given as a SMILES string. ≈ marks a conversion by molar mass, not a printed value.

For the molecule `CC=CC=CC1OC(O)(C(CC)C(=O)NCC=CC=C(C)C(OC)C(C)C2OC(C=CC=CC=C(C)C(=O)c3c(O)cc[nH]c3=O)C(O)C2O)C(O)C(O)C1(C)C` (stereo not shown) [mocimycin], in series [1], the outcome was active. In series [2], the “activity against Treponema dysentery compared with tylosin” value is on record as “active against this disease, but not more so than tylosin”. In addition, in series [3] (1,000 mg/kg i.p., mice), the lethality entry is listed as “does not kill mice”. In addition, in series [3] (various animals), the acute toxicity entry is recorded as “very low”. Also, the undesired pharmacological effect result in series [4] is “does not result in any undesired pharmacological effect”. Further, the MIC in series [5] was determined as 1 µg/mL (≈ 1.25 µM). For the same molecule, the “activity against Mycoplasma gallisepticum in vivo” value in series [6] is “no activity”.
